The subject of one data set is mice. The data set can be described thus: carmine red dye study (GI tract motility, morphine-induced constipation).
Data set [1] addresses T1, MOR (Mus musculus, UniProt P42866). The data set can be described thus: MOR [35S]GTPγS functional assay (MOR-CHO membranes). The data set is classed as biochemical. On the set-up: expressed in transfected cells; host or cells: CHO. Particulars: read-out: MOR [35S]GTPγS Binding % Emax of DAMGO. On the procedure:
The [^35S]GTPγS functional assay was conducted to determine the efficacy of the compounds at the MOR. […] The Bradford protein assay was utilized to determine and adjust the concentration of protein required for the assay. Nonspecific binding was determined with 20 μM unlabeled GTPγS. Furthermore, 3 μM DAMGO was included in the assay as the maximally effective concentration of a full agonist for the MOR. After incubation, the bound radioactive ligand was separated from the free radioligand by filtration through a GF/B glass fiber filter paper and rinsed three times with ice-cold wash buffer (50 mM Tris-HCl, pH 7.2) using the Brandel harvester. Bound radioactivity was determined by liquid scintillation counting. All assays were determined in duplicate and repeated at least three times. Net stimulated [^35S]GTPγS binding was defined as agonist-stimulated minus basal binding in the absence of agonist. Percent of DAMGO-stimulated [^35S]GTPγS binding was defined as (net-stimulated binding by ligand/net-stimulated binding by 3 μM DAMGO)×100%.
Results were reported as mean values ±SEM.
The [^35S]-GTPγS binding assay was carried out as well to determine the functionality on the MOR of each compound. […] The [^35S]GTPγS functional assay was conducted to determine the efficacy of the compounds at the MOR, KOR and DOR. […] The Bradford protein assay was utilized to determine and adjust the concentration of protein required for the assay. Nonspecific binding was determined with 20 μM unlabeled GTPγS. Furthermore, 3 μM DAMGO/U50488H/SNC80 was included in the assay as the maximally effective concentration of a full agonist for the MOR/KOR/DOR. After incubation, the bound radioactive ligand was separated from the free radioligand by filtration through a GF/B glass fiber filter paper using a Brandel harvester. Bound radioactivity was determined by liquid scintillation counting. All assays were determined in duplicate and repeated at least three times. Net stimulated [^35S]GTPγS binding was defined as agonist-stimulated minus basal binding in the absence of agonist. Percent of DAMGO/U50488H/SNC80 stimulated [^35S]GTPγS binding was defined as (net-stimulated binding by ligand/net-stimulated binding by 3 μM DAMGO U50488H/SNC80)×100%.
On the technique in general: Binding of GTPγS marks nucleotide exchange on a G protein.

The next data set deals with morphine-pelleted mice. The data set can be described thus: opioid withdrawal study in morphine-pelleted mice. Particulars: for withdrawal symptoms (wet-dog shakes, escape jumps, paw tremors): 1 mg/kg s.c., compared to 1 mg/kg NLX.
The test system of data set [2] is male Swiss Webster mice. The data set can be described thus: warm-water tail immersion (tail flick / tail-withdrawal) assay, antinociception. The data set is classed as in vivo, mouse. The settings on record: Example 1 compounds; 10 mg/kg s.c., 20 min after injection. On the procedure: In this assay, the duration for which mice kept their tails in the warm water was recorded.
All thirty-six compounds' antinociception were examined in tail immersion assay first to preclude any opioid receptor agonists.
Swiss Webster mice (six male mice for each group, 25-35 g, 6-8 weeks old) were used in this assay. Antinociception for all compounds was examined in male Swiss Webster mice. […] To prevent tissue damage, a 10 s maximum cutoff time was imposed. Antinociceptive response was calculated as the percentage of maximum possible effect (% MPE), where % MPE=[(test−control latency)/(10−control latency)]×100.
Warm-water tail immersion assay is a well-established assay for evaluating opioid analgesics, especially MOR agonists. […] In this context, all 24 compounds were first evaluated for their acute antinociception tail-withdrawal assay (FIG. 5A).
The tail-withdrawal test was performed using a water bath with the temperature maintained at 56±0.1° C. Baseline latency was measured before any injections. Each mouse was gently wrapped in a cloth with only the tail exposed. The distal one-third of the tail was immersed perpendicularly in water, and the mouse rapidly flicked the tail from the bath was seen as the first sign of discomfort. The duration of time the tail remained in the water bath was counted as the baseline latency. Untreated mice with baseline latency reaction times ranging from 2 to 4 seconds were used. Test latency was obtained 20 min later after each injection. A 10-second maximum cutoff latency was used to prevent any tissue damage. Antinociception was quantified as the percentage of maximal possible effect (% MPE), which was calculated as % MPE=[(test latency−control latency)/(10−control latency)]×100. The % MPE value was calculated for each mouse using 6 mice per group. Testing compounds were given 10 mg/kg (s.c.) to each mouse.

The next data set has as its target T2, DOR (Homo sapiens, UniProt P41143).
T2 construct: expressed in transfected cells; host or cells: CHO
As to the kind of experiment: competitive radioligand binding assay, DOR ([3H]diprenorphine, CHO cell membranes). The settings on record: read-out: Ki (nM) DOR.

Data set [3] concerns the target T3, KOR (Mus musculus, UniProt P33534). The data set can be described thus: competitive radioligand binding assay, KOR ([3H]diprenorphine, CHO cell membranes). Details: expressed in transfected cells; host or cells: CHO. Particulars: read-out: Ki (nM) KOR.
The target of data set [4] is T1, MOR. The settings on record: read-out: Ki (nM) MOR; Example 1 compounds (Tables 1, 2).
In data set [5] the test system is male Swiss Webster mice. Particulars: reference compounds, literature / previous studies; cited from earlier work.
Data set [6] has as its target Human recombinant opioid receptors (MOR) (Homo sapiens, UniProt P35372). Particulars: read-out: MOR [35S]-GTPγS Binding EC50; MNTX, reported data; cited from earlier work.
For data set [7] the following is noted: male rats, oral administration; cited from earlier work.
The target in data set [8] is Human recombinant opioid receptors (KOR) (Homo sapiens, UniProt P41145). Particulars: read-out: KOR [35S]-GTPγS binding EC50; MNTX, reported data; cited from earlier work.
Data set [9] addresses T3, KOR. The settings on record: read-out: Ki (nM) KOR; reference data adopted from literature; cited from earlier work.
Where [10] appears, read: Example 1 compounds (Tables 1, 2).

Structures can show the parent of a compound that is named as a salt. Where two headings read alike, the source gives them in different places. Some results are limits rather than exact numbers.

In the case of `CN1CC[C@]23c4c5ccc(O)c4O[C@H]2[C@@H](O)C=C[C@H]3[C@H]1C5` [morphine], in the data set with mice (morphine 10 mg/kg s.c.), the “elongation of pellet defecation time compared to naïve group” value stood at 124 min.
For orientation: Emax means the size of the effect at its maximum, as opposed to the concentration needed. Turning to `O=C(CCc1cccs1)N[C@H]1CC[C@@]2(O)[C@H]3Cc4ccc(O)c5c4[C@@]2(CCN3CC2CC2)[C@H]1O5` [Example 1 compound 29, 17-Cyclopropylmethyl-3,14β-dihydroxy-4,5α-epoxy-6α-[3′-(thiophen-2″yl)propanamido]morphinan hydrochloride], the Emax on MOR [1] was determined as 43.7 ± 1.71%.
For the molecule `O=C(Cc1ccsc1)N[C@@H]1CC[C@@]2(O)[C@H]3Cc4ccc(O)c5c4[C@@]2(CCN3CC2CC2)[C@H]1O5` [Example 1 compound 34, 17-Cyclopropylmethyl-3,14β-dihydroxy-4,5α-epoxy-6β-(3′-thienylacetamido)morphinan hydrochloride], the Emax on MOR [1] stood at 26.5 ± 3.17%.
As for `O=C(N[C@@H]1CC[C@@]2(O)[C@H]3Cc4ccc(O)c5c4[C@@]2(CCN3CC2CC2)[C@H]1O5)c1cccs1` [Example 1 compound 26, 17-Cyclopropylmethyl-3,14β-dihydroxy-4,5α-epoxy-6β-(2′-thienylcarboxamido)morphinan hydrochloride], in the data set with morphine-pelleted mice, the “withdrawal symptoms (wet-dog shakes, escape jumps, paw tremors)” value is “significantly fewer wet-dog shakes, escape jumps, and paw tremors”. Further, in the data set on morphine-pelleted mice (5 mg/kg and above, s.c.), the “withdrawal symptoms at higher doses” value is “did not precipitate significant withdrawal symptoms at doses as high as 10 times that of NLX”.
In general, Ki refers to a measure of affinity in units of concentration, obtained from inhibition or displacement. `Cl.O=C(CCc1cccs1)N[C@@H]1CC[C@@]2(O)[C@H]3Cc4ccc(O)c5c4[C@@]2(CCN3CC2CC2)[C@H]1O5` [Example 1 compound 30, 17-Cyclopropylmethyl-3,14β-dihydroxy-4,5α-epoxy-6β-[3′-(thiophen-2 yl)propanamido]morphinan hydrochloride]: the “antinociceptive effect (% MPE, in words)” value in the data set with male Swiss Webster mice [2] is reported as “exhibited antinociception”. Besides, the figures for the Ki on DOR, at KOR [3] and on MOR [4] were 4.87 ± 1.19 nM, 0.23 ± 0.02 nM and 0.26 ± 0.01 nM, respectively.
On to `O=C(N[C@@H]1CC[C@@]2(O)[C@H]3Cc4ccc(O)c5c4C2(CCN3CC2CC2)[C@H]1O5)c1ccncc1F` [NFP], for which the “AD50 mg/kg (95% CL) to antagonize morphine mediated antinociception” value with male Swiss Webster mice [5] was 2.82 mg/kg.
As for `C=CCN1CC[C@]23c4c5ccc(O)c4O[C@H]2C(=O)CC[C@@]3(O)[C@H]1C5` [NLX, naloxone, reference compound], the “AD50 mg/kg (95% CL) to antagonize morphine mediated antinociception” value with male Swiss Webster mice [5] is 0.05 mg/kg. Moreover, the “withdrawal symptoms (wet-dog shakes, escape jumps, paw tremors)” value in the data set on morphine-pelleted mice is on record as “precipitated withdrawal symptoms”.
The term EC50 denotes the midpoint of the concentration-response curve. `C[N@+]1(CC2CC2)CC[C@]23c4c5ccc(O)c4O[C@H]2C(=O)CC[C@@]3(O)[C@H]1C5` [MNTX, methylnaltrexone]: the EC50 in [6] and in data set [8] was over 10000 nM throughout. Further, in data set [7], the oral bioavailability was under 1%. Moreover, in the data set with mice (10 mg/kg oral gavage, morphine 5 mg/kg), the “blockage of GI motility inhibition by morphine (in words)” value was “no blockage was observed”.
As to `O=C(Cc1ccsc1)N[C@H]1CC[C@@]2(O)[C@H]3Cc4ccc(O)c5c4[C@@]2(CCN3CC2CC2)[C@H]1O5` [Example 1 compound 33, 17-Cyclopropylmethyl-3,14β-dihydroxy-4,5α-epoxy-6α-(3′-thienylacetamido)morphinan hydrochloride], the Emax on MOR [1] was 28.6 ± 1.15%.
Take `O=C(NC1CCC2(O)C3Cc4ccc(O)c5c4C2(CCN3CC2CC2)C1O5)c1ccncc1` (stereo not drawn) [NAP, 17-cyclopropylmethyl-3,14-dihydroxy-4,5α-epoxy-6β-[(4′-pyridyl)carboxamido]morphinan]: the Ki at KOR [9] is 278 ± 8 nM.
For “17-Cyclopropylmethyl-3,14β-dihydroxy-4,5α-epoxy-6α-(2′-thienylacetamido)morphinan hydrochloride [Example 1 compound 27]”, the inhibition constant Ki at DOR (setting [10]) stood at 6.92 ± 1.63 nM.
For the molecule “17-Cyclopropylmethyl-3,14β-dihydroxy-4,5α-epoxy-6β-(2′-thienylacetamido)morphinan hydrochloride [Example 1 compound 28]”, the Ki at DOR (setting [10]) came to 64.9 ± 2.38 nM.

Source of the values: patent publication US20250195504A1, “NALTREXAMINE DERIVATIVES BEARING 5-MEMBER HETEROCYCLIC RING SYSTEMS AND OPIOID RECEPTOR MODULATORS” (VIRGINIA COMMONWEALTH UNIVERSITY, priority 2022, published 2025).
